Data reported in patent US6790859B2, “Reversing advanced glycosylation cross-links using heterocyclic-substituted thiazolium compounds” (Alteon Incorporated, priority 1998, dated 2004).

How the values were obtained:
[1] = tested on: IgG bound to the surface of RBC (AGE cross-links); assay: Reversing AGE cross-links: RBC-IgG assay (IgG bound to RBC from streptozotocin-diabetic rats); format: cell-based, rat; conditions: RBC of streptozotocin-diabetic rats incubated with test compound in PBS overnight at 37° C.; concentration not given
Method: The activity of the compounds of the present invention to reverse AGE cross-links was evaluated in an in-vitro model, as follows. Blood was collected from streptozotocin-diabetic rats (6 to 8 wk diabetic) in heparinized tubes, centrifuged at 2500×g for 15 min. at […], and the plasma and buffy-coat layers aspirated off. The RBC were washed with PBS (ca. 5 ml PBS per ml blood) three times. Test compounds were dissolved in PBS and the pH adjusted to 7.0, if necessary. Two hundred microliters of washed RBC were added to 2 mL of test compound solution, and the mixture was incubated overnight at 37° C. […] After the overnight incubation, the reaction mixtures were centrifuged and the RBC pellets were washed three times with PBS, followed by diluting 1:30 in PBS. Immunoglobulin G (IgG) bound to the surface of the washed RBCs was then determined. Assay for RBC-IgG: The assay is performed in a Multiscreen-HA, 0.45 μm cellulose mixed esters membrane-sealed 96 well plate (Millipore MAHAS45). The membranes are first wet by filling the wells with 100 uL PBS, and the wells emptied by applying a vacuum to the Millititer vacuum manifold. Three hundred uL of Superblock (pre-warmed to 37° C.) is then added to each well and incubated at 37° C. for one hour. The Superblock is then removed from the wells by application of vacuum, then the wells are washed once with 300 ul of PBS-Tween (0.05%) and three times with PBS. The vacuum is then turned off. One hundred μl of PBS is then added to each well. Each RBC sample is gently vortexed, and 50 uL pipetted into the wells, in sextuplicate. The wells labeled A1-A3 are left for a reagent blank and wells A4-A6 reserved for an antibody blank. Vacuum is then applied to remove the buffer and the RBCs are washed once with PBS. Alkaline phosphatase-labeled rabbit-anti-rat IgG is diluted 1 to 25000 in PBS, and 50 μl is added to triplicate wells of each sample. PBS alone is added to the other three wells of each sample. These will serve as sample blanks to adjust for any endogenous alkaline phosphatase activity. The samples are allowed to stand at room temperature for two hours. The solution is then removed by application of vacuum and the red blood cells are washed with PBS-Tween twice, PBS twice and with TBS twice. The bottom of the plate is rinsed with distilled water and blotted dry with paper towels. To each well is then added 100 μl of p-nitrophenyl phosphate substrate (1 mg/ml in diethanolamine buffer pH 9.5), and the color is allowed to develop for two hours at 37° C. The solutions in each well are then transferred to a 96 well microtiter plate inside the vacuum manifold. One hundred μl of PBS to each well and vacuum applied again to transfer any remaining solution into the microtiter plate. The OD at 410 nm is then read in a Dynatech Plate reader (Sample filter 1 and Ref. filter 4). For data analysis, breaking activity (percent reversal) is expressed as the percent decrease in O.D. caused by incubation of RBC with the test compound compared to RBC incubated in PBS alone. Using the above assay, the following data was generated on the compounds of the present invention: […]

[2] = tested on: AGE-BSA cross-linked to rat tail tendon collagen (type 1); assay: Reversing collagen cross-links: AGE-BSA cross-linked to rat tail tendon collagen-coated plates; format: biochemical; conditions: 3 mM test compound, overnight at 37° C.
Method: In a further evaluation of the ability of compounds of the present invention to reverse AGE cross-links between a circulating protein and collagen, AGE-BSA was cross-linked to rat tail tendon collagen (type 1)-coated 96 well microtiter plates, and reversal of cross-linking was determined.
AGE-BSA preparation. AGE-BSA is prepared by incubation of a solution of BSA (400 mg/ml) in 0.4 M sodium phosphate buffer pH 7.4 with an equal volume of 400 mM glucose solution in the same buffer at 37° C. for 12 weeks. The pH of the incubation mixture is monitored weekly and adjusted to pH 7.4 if necessary. After 12 weeks, the AGE-BSA solution is dialyzed against PBS for 48 hours with 4 buffer changes. Protein concentration is determined by the micro-Lowry method.
Assay protocol. […] AGE-BSA was diluted in PBS to a concentration required to obtain maximum cross-linking as determined in a preliminary experiment. […]
Test compounds are dissolved in PBS and pH adjusted to 7.0 if necessary. […] The test compounds and PBS are also added to triplicate wells incubated with BSA, to obtain the blank readings. […]
The plate is washed with PBS-Tween, […] of Rabbit-anti-BSA antibody (1 to 4000 in PBS) is added to each well and the plate is incubated at room temperature for 60 min. […] Optical density is read at 410 nm with the sample filter set to “1” and the reference filter set to “5” on the Dynatech ELISA plate reader. […]

SMILES | Percent reversal (breaking activity: percent decrease in O.D. vs RBC incubated in PBS alone) [1] [%] | reversal of AGE cross-links (percent breaking, decrease in OD of TTC-AGE-BSA wells vs PBS) [2] [%]
Cc1sc[n+](CC(=O)N2CCCCC2)c1C.[Br-] [3-(2-(1-piperidinyl)-2-oxoethyl)-4,5-dimethylthiazolium bromide] | 37 | –
Cc1sc[n+](CC(=O)N2CCCC2)c1C.[Br-] [3-(2-(1-pyrrolidinyl)-2-oxoethyl)-4,5-dimethyl-thiazolium bromide] | 63 | –
Cc1sc[n+](CC(=O)c2ccco2)c1C.[Br-] [3-(2-(2-furanyl)-2-oxoethyl)-4,5-dimethylthiazolium bromide] | 76 | –
Cc1sc[n+](CC(=O)c2ccccn2)c1C.[Br-] [3-(2-(2-pyridinyl)-2-oxoethyl)-4,5-dimethyl-thiazolium bromide] | 27 | –
Cc1sc[n+](CC(=O)c2cccs2)c1C.[Br-] [3-(2-(2-thienyl)-2-oxoethyl)-4,5-dimethyl-thiazolium bromide] | 53 | –
Cc1c(CCO)sc[n+]1CC(=O)c1cccs1.[Br-] [3-(2-(2-thienyl)-2-oxoethyl)-4-methyl-5-hydroxyethylthiazolium bromide] | 24 | –
Cc1sc[n+](CC(=O)N2CCSCC2)c1C.[Br-] [3-(2-(4-thiomorpholinyl)-2-oxoethyl)-4,5-dimethylthiazolium bromide] | 47 | –
Cc1sc[n+](CC(=O)N2CC(C)OC(C)C2)c1C.[Br-] (stereo not drawn) [3-[2-(2,6-dimethyl-4-morpholinyl)-2-oxoethyl]-4,5-dimethylthiazolium bromide] | 38 | –
Cc1sc[n+](CC(=O)c2ccc3c(c2)CCC(=O)N3)c1C.[Br-] [3-[2-(2-oxo-1,2,3,4-tetrahydro-6-quinolinyl)-2-oxoethyl]-4,5-dimethylthiazolium bromide] | 84 | –
O=C(C[n+]1ccsc1)c1cc(-c2ccccc2)no1.[Br-] [3-[2-(3-phenyl-5-isoxazolyl)-2-oxoethyl]-thiazolium bromide] | 38 | 15
Cc1sc[n+](CC(=O)N2CCC(Cc3ccccc3)CC2)c1C.[Cl-] [3-[2-(4-benzyl-1-piperidinyl)-2-oxoethyl]-4,5-dimethylthiazolium chloride] | 70 | –
